{"source": "patent US20240034991A1", "about": "“METHOD FOR EFFICIENTLY INDUCING REPROGRAMMING OF HUMAN CELL INTO NEURONAL CELL” (GUANGXI UNIVERSITY, priority 2022, published 2024)", "test_system": "Human skin fibroblasts (BJ)", "test": "Immunofluorescence detection of neuronal cell marker antigens in induced human skin fibroblasts (CiNCs)", "format": "cell-based", "experimental": "After 48 h of induction, the induction medium was replaced with a neuronal cell maturation medium to continue promoting further maturation of the CiNCs, and the neuronal cell maturation medium was replaced with a neuronal cell medium after 72 h for long-term culture.\nImmunofluorescence detection of neuronal cell marker antigens was conducted on human skin fibroblasts and cells induced by neuronal cell induction (N2B27+10 μM Forskolin) for 48 h. The method included the following specific steps: human skin fibroblasts and F-48h cells in a culture plate were fixated with 4% paraformaldehyde (PFA) at room temperature for 30 min; the cells were washed with a blocking solution three times, 5 min in each time; the cells were permeabilized by 1% TritonX-100 for 15 min at room temperature; the cells were washed with the blocking solution three times again; non-specific sites were blocked with 5% donkey serum, and then blocked for 2 h at room temperature; the cells were washed three times with TBP (Tritonx-Bovine albumin-Phosphate Buffer Saline) for 5 min in each time; a primary antibody was added for incubation at 4° C. overnight; on a next day, the culture plate was placed at room temperature, rewarmed for 20 min, and then washed with TBP three times for 5 min in each time, a secondary antibody and a Hoechst mixture were added in the dark, and incubated at room temperature for 1 h; after washing three times with a TBP solution, fluorescence microscope observation and photographing experiment were conducted.", "data": [{"smiles": "C[S+]([O-])c1ccc(-c2nc(-c3ccncc3)c(-c3ccc(F)cc3)[nH]2)cc1", "note": "(stereo not shown) [SB203580]", "values": [{"measurement": "Expression of neuronal cell marker antigens TUJ1, MAP2 and NeuN (immunofluorescence, FIG. 5)", "setting": "N2B27+KSR+5 μM compound", "value": "expressed neuronal cell marker antigens TUJ1, MAP2 and NeuN"}]}, {"smiles": "Nc1ncnc2c1ncn2[C@@H]1O[C@@H]2COP(=O)(O)O[C@H]2[C@H]1O", "note": "[cAMP, cyclic Adenosine Monophosphate]", "values": [{"measurement": "Expression of neuronal cell marker antigens TUJ1, MAP2 and NeuN (immunofluorescence, FIG. 5)", "setting": "N2B27+KSR+10 μM compound", "value": "expressed neuronal cell marker antigens TUJ1, MAP2 and NeuN"}]}, {"smiles": "C=C[C@@]1(C)CC(=O)[C@]2(O)[C@@]3(C)[C@@H](O)CCC(C)(C)[C@@H]3[C@H](O)[C@H](OC(C)=O)[C@@]2(C)O1", "note": "[Forskolin]", "values": [{"measurement": "TUJ1 positive rate of CiNCs", "setting": "N2B27+KSR+10 μM Forskolin, 48 h after induction", "value": 80, "unit": "%"}]}, {"smiles": "c1ccc2c(-c3cnn4cc(-c5ccc(N6CCNCC6)cc5)cnc34)ccnc2c1", "note": "[LDN193189]", "values": [{"measurement": "Expression of neuronal cell marker antigens TUJ1, MAP2 and NeuN (immunofluorescence, FIG. 5)", "setting": "N2B27+KSR+5 μM compound", "value": "expressed neuronal cell marker antigens TUJ1, MAP2 and NeuN"}]}]}
